What was measured:
[1] = test system: barnyardgrass; experiment: Test Example 1: foliar treatment on upland field; assay type: in vivo, Echinochloa crus-galli; details: 125 g/ha, 8 days after application
Procedure: (§1) In the examples, the compounds are identified by the Compound Numbers as in Tables 1 to 3.
(§2) A cylindrical plastic pot having a diameter of 10 cm and a depth of 10 cm was filled with soil and seeded with ivyleaf momingglory, velvetleaf and bamyardgrass. These test plants were grown in a greenhouse for 9 days. Then each of compounds 1-1, 2-1, 2-2, 3-1 and 3-101 was formulated into an emulsifiable concentrate according to Formulation Example 2 and then diluted to the prescribed amount with water containing a spreading agent and the dilution was uniformly sprayed over the foliage of the test plants with sprayer at a rate of 1000 liters per hectare. After the application, the test plants were grown in the greenhouse for 8 days, and the herbicidal activity were determined.

[2] = test system: velvetleaf; experiment: Test Example 1: foliar treatment on upland field; assay type: in vivo, Abutilon theophrasti; details: 125 g/ha, 8 days after application
Procedure: as §1, §2

[3] = test system: ivyleaf morningglory; experiment: Test Example 1: foliar treatment on upland field; assay type: in vivo, Ipomoea hederacea; details: 125 g/ha, 8 days after application
Procedure: as §1, §2

[4] = test system: velvetleaf; experiment: Test Example 2: soil surface treatment on upland field; assay type: in vivo, Abutilon theophrasti; details: 500 g/ha, 12 days after application
Description: (§3) In the examples, the compounds are identified by the Compound Numbers as in Tables 1 to 3. […] A cylindrical plastic pot having a diameter of 10 cm and a depth of 10 cm was filled with soil and seeded with velvetleaf. Then each of compounds 1-1, 2-1, 2-2, 3-1 and 3-101 was formulated into an emulsifiable concentrate according to Formulation Example 2 and then diluted to the prescribed amount with water and dilution was uniformly sprayed over the surface of the soil with sprayer at a rate of 1000 liters per hectare. After the application, the test plants were grown in a greenhouse for 12 days, and the herbicidal activity was examined.

[5] = test system: ivyleaf morningglory; experiment: Test Example 3: foliar treatment on upland field (Table 4); assay type: in vivo, Ipomoea hederacea; design: key: 0: little difference in the degree of germination or growth between the treated plants and the untreated plants at the time of examination; 10: the treated plants died completely or their germination or growth was completely inhibited; details: 125 g/ha active ingredient, examined 16 days after application, index 0-10
Procedure: (§4) In the examples, the compounds are identified by the Compound Numbers as in Tables 1 to 3. […] A cylindrical plastic pot having a diameter of 10 cm and a depth of 10 cm was filled with soil and seeded with ivyleaf momingglory, velvetleaf and barnyardgrass. These test plants were grown in a greenhouse for 10 days. Then each of compounds listed below was formulated into an emulsifiable concentrate according to Formulation Example 2 and then diluted to the prescribed amount with water containing a spreading agent and the dilution was uniformly sprayed over the foliage of the test plants with sprayer at a rate of 1000 liters per hectare. After the application, the test plants were grown in the greenhouse for 16 days, and the herbicidal activity were determined.

[6] = test system: ivyleaf morningglory; experiment: Test Example 4: soil surface treatment on upland field (Table 5); assay type: in vivo, Ipomoea hederacea; design: key: 0: little difference in the degree of germination or growth between the treated plants and the untreated plants at the time of examination; 10: the treated plants died completely or their germination or growth was completely inhibited; details: 500 g/ha active ingredient, examined 12 days after application, index 0-10
Description: as §3, with “seeded ivyleaf morningglory, velvetleaf and barnyardgrass.” for “seeded with velvetleaf.”, “compounds listed below” for “compounds 1-1, 2-1, 2-2, 3-1 and 3-101”, “at the” for “at a”

[7] = test system: velvetleaf; experiment: Test Example 3: foliar treatment on upland field (Table 4); assay type: in vivo, Abutilon theophrasti; design: key: 0: little difference in the degree of germination or growth between the treated plants and the untreated plants at the time of examination; 10: the treated plants died completely or their germination or growth was completely inhibited; details: 125 g/ha active ingredient, examined 16 days after application, index 0-10
Procedure: as §4

[8] = test system: velvetleaf; experiment: Test Example 4: soil surface treatment on upland field (Table 5); assay type: in vivo, Abutilon theophrasti; design: key: 0: little difference in the degree of germination or growth between the treated plants and the untreated plants at the time of examination; 10: the treated plants died completely or their germination or growth was completely inhibited; details: 500 g/ha active ingredient, examined 12 days after application, index 0-10
Description: as §3, with “seeded ivyleaf morningglory, velvetleaf and barnyardgrass.” for “seeded with velvetleaf.”, “compounds listed below” for “compounds 1-1, 2-1, 2-2, 3-1 and 3-101”, “at the” for “at a”

[9] = test system: large crabgrass; experiment: Test Example 5: foliar treatment on upland field (Table 6); assay type: in vivo, Digitaria sanguinalis; design: key: 0: little difference in the degree of germination or growth between the treated plants and the untreated plants at the time of examination; 10: the treated plants died completely or their germination or growth was completely inhibited; details: 125 g/ha, 19 days after application, index 0 to 10
Procedure: In the examples, the compounds are identified by the Compound Numbers as in Tables 1 to 3. […] A pot for plug seedlings seeded with large crabgrass. The test plant was grown in a greenhouse for 14 days, then transplanted into a plastic pot having an area of 17×12 cm^2 and a depth of 7 cm, and further the test plants were grown in the greenhouse for 8 days. Then each of compounds listed below was formulated into an emulsifiable concentrate according to Formulation Example 2 and then diluted to the prescribed amount with water containing a spreading agent and the dilution was uniformly sprayed over the foliage of the test plants with sprayer at a rate of 1000 liters per hectare. After the application, the test plants were grown in the greenhouse for 19 days, and the herbicidal activity were determined.

[10] = test system: barnyardgrass; experiment: Test Example 4: soil surface treatment on upland field (Table 5); assay type: in vivo, Echinochloa crus-galli; design: key: 0: little difference in the degree of germination or growth between the treated plants and the untreated plants at the time of examination; 10: the treated plants died completely or their germination or growth was completely inhibited; details: 500 g/ha active ingredient, examined 12 days after application, index 0-10
Description: as §3, with “seeded ivyleaf morningglory, velvetleaf and barnyardgrass.” for “seeded with velvetleaf.”, “compounds listed below” for “compounds 1-1, 2-1, 2-2, 3-1 and 3-101”, “at the” for “at a”

[11] = test system: barnyardgrass; experiment: Test Example 3: foliar treatment on upland field (Table 4); assay type: in vivo, Echinochloa crus-galli; design: key: 0: little difference in the degree of germination or growth between the treated plants and the untreated plants at the time of examination; 10: the treated plants died completely or their germination or growth was completely inhibited; details: 125 g/ha active ingredient, examined 16 days after application, index 0-10
Procedure: as §4

| Compound | growth of barnyardgrass [1] | growth of velvetleaf [2] | growth of ivyleaf morningglory [3] | germination of velvetleaf [4] | Herbicidal effect Ivyleaf morningglory [5] | Herbicidal effect Ivyleaf morningglory [6] | Herbicidal effect Velvetleaf [7] | Herbicidal effect Velvetleaf [8] | Herbicidal effect Large crabgrass [9] | Herbicidal effect Barnyardgrass [10] | Herbicidal effect Barnyardgrass [11] |
| --- | --- | --- | --- | --- | --- | --- | --- | --- | --- | --- | --- |
| COC(=O)C(C)Oc1ccccc1COc1cc(-n2c(=O)cc(C(F)(F)F)n(C)c2=O)c(F)cc1Cl (stereo not drawn) [Compound 3-1, methyl 2-[2-({2-chloro-4-fluoro-5-[3-methyl-2,6-dioxo-4-(trifluoromethyl)-1,2,3,6-tetrahydropyrimidine-1-yl]phenoxy}methyl)phenoxy]propionate] | completely controlled | completely controlled | completely controlled | completely controlled |  |  |  |  |  |  |  |
| COC(=O)C(C)Oc1c(Br)cc(COc2cc(-n3c(=O)cc(C(F)(F)F)n(C)c3=O)c(F)cc2Cl)cc1OC (stereo not drawn) [Compound 1-161, Methyl 2-[2-bromo-4-({2-chloro-4-fluoro-5-[3-methyl-2,6-dioxo-4-(trifluoromethyl)-1,2,3,6-tetrahydropyrimidine-1-yl]phenoxy}methyl)-6-methoxyphenoxy]propionate] |  |  |  |  | 10 | 7 | 10 | 10 | 10 | 4 | 8 |
| CCOC(=O)C(C)Oc1ccc(COc2cc(-n3c(=O)cc(C(F)(F)F)n(C)c3=O)c(F)cc2Cl)cc1 (stereo not drawn) [Compound 1-2, Ethyl 2-[4-({2-chloro-4-fluoro-5-[3-methyl-2,6-dioxo-4-(trifluoromethyl)-1,2,3,6-tetrahydropyrimidine-1-yl]phenoxy}methyl)phenoxy]propionate] |  |  |  |  | 10 | 10 | 10 | 10 | 10 | 10 | 10 |
| COC(=O)C(C)Oc1ccc(COc2cc(-n3c(=O)cc(C(F)(F)F)n(C)c3=O)c(F)cc2Cl)cc1C (stereo not drawn) [Compound 1-101, Methyl 2-[4-({2-chloro-4-fluoro-5-[3-methyl-2,6-dioxo-4-(trifluoromethyl)-1,2,3,6-tetrahydropyrimidine-1-yl]phenoxy}methyl)-2-methylphenoxy]propionate] |  |  |  |  | 10 | 10 | 10 | 10 | 10 | 10 | 10 |
| COC(=O)C(C)Oc1ccc(Cl)c(COc2cc(-n3c(=O)cc(C(F)(F)F)n(C)c3=O)c(F)cc2Cl)c1 (stereo not drawn) [Compound 2-187, Methyl 2-[4-chloro-3-({2-chloro-4-fluoro-5-[3-methyl −2,6-dioxo-4-(trifluoromethyl)-1,2,3,6-tetrahydropyrimidine-1-yl]phenoxy}methyl)phenoxy]propionate] |  |  |  |  | 10 | 10 | 10 | 10 | 10 | 9 | 10 |
| COC(=O)C(C)Oc1cc(COc2cc(-n3c(=O)cc(C(F)(F)F)n(C)c3=O)c(F)cc2Cl)ccc1OC (stereo not drawn) [Compound 2-61, Methyl 2-[5-({2-chloro-4-fluoro-5-[3-methyl-2,6-dioxo-4-(trifluoromethyl)-1,2,3,6-tetrahydropyrimidine-1-yl]phenoxy}methyl)-2-methoxyphenoxy]propionate] |  |  |  |  | 10 | 10 | 10 | 10 | 10 | 10 | 10 |
| COC(=O)C(C)Oc1ccc(C(C)Oc2cc(-n3c(=O)cc(C(F)(F)F)n(C)c3=O)c(F)cc2Cl)cc1 (stereo not drawn) [Compound 1-21, Methyl 2-[4-(1-{2-chloro-4-fluoro-5-[3-methyl-2,6-dioxo-4-(trifluoromethyl)-1,2,3,6-tetrahydropyrimidine-1-yl]phenoxy}ethyl)phenoxy]propionate] |  |  |  |  | 10 | 10 | 10 | 10 | 10 | 10 | 10 |
| COC(=O)C(C)Oc1ccc(C(C#N)Oc2cc(-n3c(=O)cc(C(F)(F)F)n(C)c3=O)c(F)cc2Cl)cc1 (stereo not drawn) [Compound 1-226, Methyl 2-{4-[{2-chloro-4-fluoro-5-[3-methyl-2,6-dioxo-4-(trifluoromethyl)-1,2,3,6-tetrahydropyrimidine-1-yl]phenoxy}(cyano)methyl]phenoxy}propionate] |  |  |  |  | 10 | 10 | 10 | 10 | 10 | 9 | 10 |
| COC(=O)C(C)Oc1ccc(C(Oc2cc(-n3c(=O)cc(C(F)(F)F)n(C)c3=O)c(F)cc2Cl)c2ccccc2)cc1 (stereo not drawn) [Compound 1-246, Methyl 2-[4-({2-chloro-4-fluoro-5-[3-methyl-2,6-dioxo-4-(trifluoromethyl)-1,2,3,6-tetrahydropyrimidine-1-yl]phenoxy}(phenyl)methyl)phenoxy]propionate] |  |  |  |  | 10 | 8 | 10 | 10 | 10 | 10 | 8 |

Reference: patent US6664214B1, “Uracil compounds and use thereof” (Sumitomo Chemical Company, Limited, priority 1999, dated 2003)
